These are literature values, as cited in article PMC10318822, “Phase 1 dose-escalation study to evaluate the safety, tolerability, pharmacokinetics, and anti-tumor activity of FCN-159 in adults with neurofibromatosis type 1-related unresectable plexiform neurofibromas” (BMC Medicine, 2023).

Read-outs that look alike come from different tables or passages of the source.

For data set [1], the system named is NF1-related PN. More on the design: method as in PMID 33507822. The following applies: adult patients with NF1 and progressive PN, 2 mg/m^2 twice daily, n = 8/19; cited from earlier work.
Data set [2] has as its system patients. More on the design: method as in PMID 20215549. The settings on record: cited from earlier work.
The conditions of data set [3]: cited from earlier work; for RP2D: twice daily.
Data set [4] deals with NF1-related PN. The settings on record: cited from earlier work.
The test system of data set [5] is patients. The following applies: in vivo; cited from earlier work.

Turning to `O=C(NOC[C@H](O)CO)c1ccc(F)c(F)c1Nc1ccc(I)cc1F` [mirdametinib], the Response rate in the data set on NF1-related PN [1] was 42%. Also, in the data set with patients [2], the Blurred vision is 10.6%, the Patients with rash is recorded as 78.8% and the Visual disturbance is 13.6%. In addition, in data set [3], the Terminal half-life was 4.6 to 18.0 h; the “Terminal half-life, average” value is recorded as 7.8 h; the RP2D is 2 mg/m^2.
`Cn1cnc2c(F)c(Nc3ccc(Br)cc3Cl)c(C(=O)NOCCO)cc21` [selumetinib]: the “Partial responses (PRs)” value with NF1-related PN [4] (interim results, phase II study in adults (NCT02407405), n = 16/23) is recorded as 69%. The Response rate in the data set on NF1-related PN [4] (pediatric patients with NF1-related PN) was 40–70%. Also, the “Partial responses (PRs)” value in the data set with NF1-related PN [4] (phase I study, children, 20–30 mg/m^2 twice daily, n = 17/24) was 71%. The “Partial responses (PRs)” value in the data set on NF1-related PN [4] (phase II trial, n = 34/50) is 68%. Besides, in data set [3], the “Dose proportionality of plasma concentration increase” value is “less than dose-proportional”, the Terminal half-life is 6.0 to 6.9 h and the RP2D was 25 mg/m^2. For the same compound, the “Time to Cmax” value in data set [3] (human, in vivo) was 1.00 to 1.10 h. For the same compound, in the data set on patients [5], the “Patients reporting AEs of CTCAE grade 3 or above” value is on record as “up to 71.4%”, the “Patients with acneiform dermatitis” value is 62.5% and the “Visual function AEs” value was 17.9%.
